The record followed here is patent US4698422A, “Triphos and tetraphos gold compounds and ligands” (SmithKline Beckman Corporation, priority 1986, dated 1987).

In general, MTD refers to the largest dose that counted as tolerated. A higher MTD goes with a wide tolerated range. A word on the ILS: it is how much longer treated animals lived than controls. Read a high ILS as much gain in survival.

Values joined by “and” are separate entries in the source; they are usually repeats but may differ in a detail not shown here. Equal values may be shown once.

For one series, the system named is P388 leukemia. Kind of series: in vivo ip P388 lymphocytic leukemia model. The arrangement: species or system B6D2F1 mice. The conditions noted are these: maximum increase in lifespan, mice bearing ip P388 leukemia; slashes = separate experiments; ip Days 1 through 5; active if ≥25 percent. Here is the method: This tumor system is widely accepted as an antitumor agent screening tool because it is sensitive to virtually all of the clinically active antineoplastic agents; quantitative and reproducible; amenable for large-scale screening; and predictive for activity in other animal tumor models.
10^6 P388 leukemia cells are inoculated ip in B6D2F1 mice. Twenty-four hours later, if the tumor inoculum proves to be free of bacterial contamination (as determined by 24 hours incubation in thioglycollate broth), animals are randomized into groups of 6 and housed in shoebox cages. The compound to be evaluated is dissolved in a minimal volume of either N,N-dimethylacetamide (DMA) or 95% ethanol (depending upon solubility). An equal volume of saline is added; if the drug comes out of solution an equal volume of polyethoxylated castor oil is added and then saline qs to a concentration such that the desired dose is delivered in 0.5 ml. The final concentration of DMA, ethanol and polyethoxylated castor oil is […]. Dilutions for lower doses are made with saline so there is a decreasing proportion of organic solvents in the vehicle with decreasing dosage. […] Fomulations are prepared immediately prior to injection. The compound is administered ip on Days 1 through 5 (i.e. treatment is initiated 24 hrs after tumor inoculation). Each experiment includes three groups of 6 animals as untreated controls and animals treated with a positive control, cisplatin, at two dose levels. Animals are weighed as a group on Days 1, 5 and 9 and average weight change (Δwt.) is used as a reflection of toxicity. Each experiment also includes an inoculum titration--groups of 8 mice inoculated ip with 10^5 to […] P388 leukemia cells. The titration is used to calculate cell kill achieved by treatment with drugs. Animals are monitored daily for mortality and experiments are terminated after 45 days. The endpoint is median survival time (MST) and increase in lifespan (ILS) which is the percentage of increase in MST relative to untreated controls.

The nature of series [1]: maximally tolerated dose in mice, ip, P388 regimen (Table A). It counts as in vivo, mouse. The conditions noted are these: mouse, in vivo, ip; maximally tolerated dose for B6D2F female mice, ipqDxs regimen (Days 1 through 5). Here is the method: (§1) 10^6 P388 leukemia cells are inoculated ip in B6D2F1 mice. Twenty-four hours later, if the tumor inoculum proves to be free of bacterial contamination (as determined by 24 hours incubation in thioglycollate broth), animals are randomized into groups of 6 and housed in shoebox cages. The compound to be evaluated is dissolved in a minimal volume of either N,N-dimethylacetamide (DMA) or 95% ethanol (depending upon solubility). An equal volume of saline is added; if the drug comes out of solution an equal volume of polyethoxylated castor oil is added and then saline qs to a concentration such that the desired dose is delivered in 0.5 ml. The final concentration of DMA, ethanol and polyethoxylated castor oil is […]. Dilutions for lower doses are made with saline so there is a decreasing proportion of organic solvents in the vehicle with decreasing dosage. These vehicles provide soluble formulations (or suspensions). Fomulations are prepared immediately prior to injection. The compound is administered ip on Days 1 through 5 (i.e. treatment is initiated 24 hrs after tumor inoculation). Each experiment includes three groups of 6 animals as untreated controls and animals treated with a positive control, cisplatin, at two dose levels. Animals are weighed as a group on Days 1, 5 and 9 and average weight change (Δwt.) is used as a reflection of toxicity. Each experiment also includes an inoculum titration--groups of 8 mice inoculated ip with 10^5 to […] P388 leukemia cells. The titration is used to calculate cell kill achieved by treatment with drugs. Animals are monitored daily for mortality and experiments are terminated after 45 days. The endpoint is median survival time (MST) and increase in lifespan (ILS) which is the percentage of increase in MST relative to untreated controls. Untreated controls inoculated ip with 10^6 P388 leukemia cells generally survive for a median of 9 to 11 days. A drug is considered active if it produces ≥25 percent ILS.
(§2) ^(a) maximally tolerated dose for B6D2F female mice on an ipqDxs

Series [2] concerns B6D2F female mice. Described as above. Format: in vivo, mouse. As to conditions: maximally tolerated dose for B6D2F female mice, ipqDxs regimen (Days 1 through 5). Here is the method: as §1, §2
In series [3] the test system is B6D2F female mice. Put plainly: maximally tolerated dose in mice, ip qD × 10, M5076 (Table B). It counts as in vivo, mouse. As to conditions: maximally tolerated dose for B6D2F female mice. The procedure: (§3) Another chemosensitive tumor model is intraperitoneally (ip) implanted M5076 reticulum cell sarcoma in mice. In this system B6D2F female mice are inoculated with 0.5 ml of a 10 percent (w:v) brei of M5076 prepared from pooled subcutaneous (sc) tumors excised at about 21 days from C57B1/6 donors. Drugs are administered ip. Daily treatment is begun 24 hours after implantation and is continued for ten days. The treatment regimen for M5076 is more prolonged than for P388 because of the slower growth rate and longer control survival time of the M5076 tumor. A drug is considered active in this tumor model if it produces ≥25% ILS.
^(b) maximally tolerated dose for B6D2F female mice on an ip qD

For another series, the system named is B6D2F1 mice. Kind of series: maximally tolerated dose in mice, ip qD × 10, B16 (Table C). The conditions noted are these: maximally tolerated dose for B6D2F1 mice. Format: in vivo, mouse. Here is the method: (§4) In this system, groups of eight B6D2F1 mice are inoculated ip with 0.5 ml of a 10% (w:v) brei of B15 melanoma prepared from pooled sc tumors excised at 14-21 days from […] donor mice. Daily treatment is begun 24 hours after tumor implantation and is continued daily for ten (10) days. The route of drug administration is ip. The mice are monitored daily for survival for sixty (60) days. Antitumor activity is assessed by prolongation of median survival time. An ILS of ≥25% indicates activity in this tumor model.
^(b) maximally tolerated dose for B6D2F1 mice on an ip qD .times

Another series has as its system B16 melanoma. Kind of series: in vivo ip B16 melanoma assay. The arrangement: species or system B6D2F1 mice. As to conditions: maximum increase in lifespan, mice bearing ip B16 melanoma; slash = separate experiments; ip daily for ten days; active if ≥25%. The procedure: as §4
For series [4], the system named is M5076 reticulum cell sarcoma. Put plainly: intraperitoneally implanted M5076 reticulum cell sarcoma in mice. Format: in vivo, B6D2F female mice. The conditions noted are these: maximum increase in lifespan, mice bearing ip M5076; ip daily for ten days; active if ≥25% ILS. Here is the method:
as §3

Take `c1ccc(P(CCP(c2ccccc2)c2ccccc2)CCP(c2ccccc2)c2ccccc2)cc1` [Compound 6, bis(2-diphenylphosphinoethyl)phenylphosphine]: in the series with P388 leukemia, the “ILS (max)” value was 80% and 50%. In series [1], this compound gave an MTD of 32 mg/kg.
Take `c1ccc(P(CCP(CCP(c2ccccc2)c2ccccc2)CCP(c2ccccc2)c2ccccc2)c2ccccc2)cc1` [Compound 7, tris(diphenylphosphinoethyl)phosphine]: in the series with P388 leukemia, the “ILS (max)” value was 35% and 30%. Besides, the MTD in series [1] stood at 64 mg/kg.
Turning to `c1ccc(P(CCP(CCP(c2ccccc2)c2ccccc2)c2ccccc2)CCP(c2ccccc2)c2ccccc2)cc1` (stereo not drawn) [Compound 8, 1,1,4,7,10,10-hexaphenyl-1,4,7,10-tetraphosphodecane], the “ILS (max)” value with P388 leukemia was 25% and 40%. The compound also showed an MTD in series [1] of 64 mg/kg.
For `CC(CP(c1ccccc1)c1ccccc1)(CP(c1ccccc1)c1ccccc1)CP(c1ccccc1)c1ccccc1` [Compound 9, μ-[1,1,1-Tris(diphenylphosphinomethyl)ethane]], the “ILS (max)” value in the series with P388 leukemia is 45% and 25%. Besides, in series [1], the maximum tolerated dose (MTD) came to 128 mg/kg.
Turning to “μ-[1,1,1-Tris(diphenylphosphinomethyl)ethane]tris(chlorogold) [Compound 5]”, the “ILS (max)” value in the series with P388 leukemia is 40% and 30%. Also, the MTD with B6D2F female mice [2] came to 20 mg/kg.
In the case of “μ-[1,1,4,7,10,10-Hexaphenyl-1,4,7,10-tetraphosphodecane]tetrakis(1-thio- β-D-glucopyranosato-S)gold [Compound 4]”, the “ILS (max)” value in the series with P388 leukemia was 100% and 55%. The compound also registered an MTD with B6D2F female mice [2] of 8 mg/kg.
Regarding “μ-[1,1,4,7,10,10-Hexaphenyl-1,4,7,10-tetraphosphodecane]tetrakis(chlorogold) [Compound 3]”, the MTD in the series on B6D2F female mice [3] is 8 mg/kg; in the series with B6D2F1 mice it was 6 mg/kg; in the series with B6D2F female mice [2], 12 mg/kg. Moreover, in the series on B16 melanoma, the ILS was 30% and 51%. Also, the “ILS (MAX)” value in series [4] came to 96%.
Consider “μ-[Bis(2-diphenylphosphinoethyl)phenylphosphine]tris(chlorogold) [Compound 1]”, for which, in the series on P388 leukemia, the “ILS (max)” value is 30% and 40%. In the series on B6D2F female mice [2], this compound came in with a maximal tolerated dose (MTD) of 8 mg/kg.
“μ-[Tris(2-diphenylphosphinoethyl)phosphine]tetrakis(chlorogold) [Compound 2]”: the “ILS (max)” value with P388 leukemia was 45%. Further, the MTD in the series with B6D2F female mice [2] amounted to 8 mg/kg.
